Measurements reported in a compilation of properties of binary mixtures (doi:10.1016/j.jct.2013.10.027).

Test: xn = mol fraction of the nth substance listed
Settings: 101 kPa

OCC(F)(F)F + CCCC[n+]1ccn(C)c1.O=S(=O)([N-]S(=O)(=O)C(F)(F)F)C(F)(F)F
viscosity [mPa·s]
Settings | x1 = 0.0877 | x1 = 0.2626 | x1 = 0.4753 | x1 = 0.6153 | x1 = 0.7568 | x1 = 0.8748 | x1 = 1
278.15 K | 111.4 | – | – | – | – | 5.37 | 3.28
283.15 K | 84.8 | 51.2 | 24.63 | 14.14 | 7.74 | 4.62 | 2.81
288.15 K | 66 | 40.93 | 20.36 | 11.94 | 6.67 | 4.02 | 2.42
293.15 K | 52.3 | 33.18 | 17.03 | – | 5.8 | 3.53 | 2.11
298.15 K | 42.28 | – | 14.48 | 8.81 | – | 3.12 | 1.84
303.15 K | 34.67 | 22.96 | 12.43 | 7.68 | 4.45 | 2.78 | 1.62
308.15 K | 28.83 | 19.43 | 10.77 | 6.75 | 3.94 | 2.49 | 1.43
313.15 K | 24.27 | 16.63 | – | 5.99 | 3.53 | 2.25 | 1.27
318.15 K | 20.67 | 14.38 | – | 5.35 | 3.18 | 2.04 | 1.13
323.15 K | 17.78 | 12.54 | 7.38 | 4.81 | 2.88 | 1.85 | –
328.15 K | 15.43 | 11.03 | 6.6 | 4.34 | 2.62 | 1.69 | 0.925
333.15 K | 13.51 | – | 5.94 | 3.95 | 2.4 | 1.54 | 0.824

CCCC[n+]1ccn(C)c1.O=S(=O)([N-]S(=O)(=O)C(F)(F)F)C(F)(F)F + OCC(F)(F)F
x2 = 0
Settings | viscosity [mPa·s]
278.15 K | 143
288.15 K | 82.4
293.15 K | 64.6
298.15 K | 51.6
303.15 K | 41.9
308.15 K | 34.6
313.15 K | 28.9
318.15 K | 24.4
323.15 K | 20.9
328.15 K | 18
333.15 K | 15.7
